The values below come from US8946124B2, “Substituted 3-(biphenyl-3-yl)-8,8-difluoro-4-hydroxy-1-azaspiro[4.5]dec-3-en-2-ones for therapy and halogen-substituted spirocyclic ketoenols” (Bayer Intellectual Property GmbH, priority 2011, dated 2015).

Molecules are shown by their SMILES.

A short description of data set [1]: Octanol/water distribution coefficient (log P/D), isocratic HPLC method. It is filed as physicochemical. The settings on record: pH 7.4; mean (range, n); read-out: logP/D pH 7.4. From the text:
The distribution coefficient octanol/water P or D is a key parameter for estimating membrane penetration and permeability. It is defined as the ratio of the equilibrium concentrations of a substance in the two-phase system octanol/water.
[formula] P=partition D=distribution c(octanol)=concentration of the substance in the octanol phase c(water)=concentration of the substance in the aqueous phase
It is usually stated in form of the decadic logarithm (log P or log D).
log P describes the distribution behavior of a substance exclusively present in its neutral form. logD describes the distribution behavior of a substance at a certain pH; depending on the ionisation constant pKa of the substance, some of the substance may be present in ionic form, and some in neutral form.
The log P/D of the active compounds was determined using an isocratic HPLC method (HPLC=high performance liquid chromatography) (literature: OECD Guideline for Testing of Chemicals No. 117). The method is based on the correlation of the HPLC retention time of the test substance to that of reference substances with known distribution coefficients.
The test substance was employed as a 10 mM solution in DMSO (DMSO=dimethyl sulfoxide). 10 μl of this solution were made up to 100 μl with a methanol/water mixture in a ratio of 7+3.
The nine reference substances were dissolved individually in methanol. 100 μl each of the stock solutions were added to an HPLC vial and mixed with 300 μl of water.
A formamide solution was used to determine the hold-up time. To this end, 7 mg of formamide were dissolved in 10 ml of methanol. 100 μl of this stock solution were mixed with 500 μl of methanol and 200 μl of water.
All solutions were chromatographed using a flow rate of 1.00 ml/min.
Injection Protocol: formamide, references, test substance 1, test substance 2, . . . , formamide, references.
Evaluation of the retention times was carried out in a diode array detector (DAD) at 200-400 nm. Via the molecular mass, the identity of the test substance was checked using the downstream mass spectrometer.
The HPLC run was evaluated using the Waters software Masslynx 4.1.
The log P/D values were calculated using the software “POW Determination” (proprietary development).

For a further data set, the system named is Tetranychus urticae. As to the kind of experiment: Tetranychus test, OP-resistant (TETRUR spray treatment). Format: in vivo. The settings on record: after 6 days. How it is done:
(§1) Solvents: 78.0 parts by weight of acetone
After 6 days, the effect in % is determined.
Tetranychus Test, OP-Resistant (TETRUR Spray Treatment)

The next data set relates to human plasma protein. The data set can be described thus: Plasma protein binding by equilibrium dialysis. Format: in vitro ADME. How it is done:
(§2) The binding of test substances to plasma proteins is determined by equilibrium dialysis by means of the Ht-dialysis apparatus (96-well) made of Teflon and a semipermeable membrane (regenerated cellulose, MWCO 12-14K). This separates 150 μl each of a plasma side and a buffer side (50 mM phosphate buffer). The test substance is added in 2 concentrations (usually 3 and 0.3 μM) to the plasma side and binds to plasma proteins. The unbound fraction of the test substance passes through the membrane and is distributed on either side until equilibrium is established (after approx. 6-8 h at 37° C.). The substance concentration on the buffer side and the plasma side is determined by LC-MS analysis. For this, both sides are brought by dilution with buffer or plasma to the same matrix (10% plasma) and then precipitated with methanol. The free (unbound) fraction (fu) is calculated from the quotient of the buffer and plasma concentration. Stability tests and recovery tests are run concurrently as controls. In addition, the substance in buffer is dialysed against buffer, to check the nonspecific binding to apparatus and membrane and establishment of equilibrium. Because during incubation the osmotic pressure of the plasma proteins leads to dilution of the plasma (volume shift), this possible error is determined by weighing blank plasma samples and is included in the calculation of fu. Establishment of equilibrium and plasma stability should have a value not lower than 80% and the recovery should be at least 30%. A free fraction of <1% is regarded as high, between 1 and 10% as moderate and >10% as low plasma protein binding.
For orientation: In equilibrium dialysis free small molecules cross a membrane that holds back macromolecules.

For another data set, the system named is mouse plasma protein. The data set can be described thus: Plasma protein binding by equilibrium dialysis. Format: in vitro ADME. How it is done: as §2
In a further data set the test system is Phaedon cochleariae. As to the kind of experiment: Phaedon test (PHAECO spray treatment). The conditions noted are these: 500 g/ha, after 7 days.
A further data set relates to Myzus persicae. As to the kind of experiment: Myzus test (MYZUPE spray treatment). It is filed as in vivo. The settings on record: 500 g/ha, after 6 days.
The subject of the next data set is Spodoptera frugiperda. The data set can be described thus: Spodoptera frugiperda test (SPODFR spray treatment). It is filed as in vivo. The settings on record: 500 g/ha, after 7 days.
Source text: as §1

The next data set has as its system human ACC1. It is filed as biochemical. The settings on record: pairwise, same substance dilution series.
The next data set deals with Meloidogyne incognita. As to the kind of experiment: Meloidogyne incognita test (MELGIN). It is filed as in vivo. The conditions noted are these: 20 ppm, after 14 days. As for the experimental part:
Solvent: 125 parts by weight of acetone
Containers are filled with sand, solution of active compound, Meloidogyne incognita egg/larvae suspension and lettuce seeds. The lettuce seeds germinate and the plants develop. On the roots, galls are formed. After 14 days, the nematicidal effect in % is determined by the formation of galls. 100% means that no galls have been found; 0% means that the number of galls on the treated plants corresponds to the untreated control.

Another data set deals with Boophilus microplus. The data set can be described thus: Boophilus microplus test (BOOPMI injection). It is filed as in vivo. The conditions noted are these: 20 μg/animal, after 7 days. As for the experimental part:
(§3) Solvent: dimethyl sulfoxide
To prepare an appropriate active compound formulation, 10 mg of active compound are mixed with 0.5 ml of solvent and the concentrate is diluted with solvent to the desired concentration. The solution of active compound is injected into the abdomen (Boophilus microplus), and the animals are transferred into dishes and kept in a climatized room. The activity is assessed by […] of fertile eggs.
100% means that none of the ticks has laid any fertile eggs.

The next data set deals with Lucilia cuprina. The data set can be described thus: Lucilia cuprina test (LUCICU). The settings on record: 100 ppm, after 2 days. It is filed as in vivo. How it is done:
as §3
To prepare an appropriate active compound formulation, 10 mg of active compound are mixed with 0.5 ml of dimethyl sulfoxide and the concentrate is diluted with water to the desired concentration. Vessels containing horse meat treated with the active compound preparation of the desired concentration are populated with about 20 Lucilia cuprina larvae.
After 2 days, the kill in % is determined.

The subject of another data set is plasma proteins of rat. The data set can be described thus: Plasma protein binding by equilibrium dialysis. Format: in vitro ADME. As for the experimental part:
as §2

Turning to `Cc1ccc(-c2ccc(Cl)cc2)cc1C1=C(O)C2(CCC(F)(F)CC2)NC1=O` [Example 1-2, 3-(4′-Chloro-4-methylbiphenyl-3-yl)-8,8-difluoro-4-hydroxy-1-azaspiro[4.5]dec-3-en-2-one], the chromatographic logD in data set [1] was 1.73. In addition, the “effect in % (spider mites killed)” value in the data set on Tetranychus urticae (100 g/ha) is 100%. Also, the “fu [%] (human)” value in the data set on human plasma protein is 0.42%. In addition, in the data set on mouse plasma protein, the “fu [%] (mouse)” value worked out at 3.49%. The “effect in % (beetle larvae killed)” value in the data set with Phaedon cochleariae came out at 100%. Further, the “effect in % (aphids killed)” value with Myzus persicae came out at 100%. In addition, the “effect in % (caterpillars killed)” value in the data set with Spodoptera frugiperda is recorded as 100%.

Take `O=C1NC2(CCC(F)(F)CC2)C(O)=C1c1cc(-c2ccc(Cl)cc2)ccc1Cl` [Example 1-4, 3-(4,4′-Dichlorobiphenyl-3-yl)-8,8-difluoro-4-hydroxy-1-azaspiro[4.5]dec-3-en-2-one]: in the data set on human ACC1, the “Ratio of IC50s ACC2/ACC1 (respective measurement)” value (from here on “Ratio of IC50s ACC2/ACC1”) was determined as 34.0.

Take `Cc1ccc(-c2ccc(Cl)cc2)c(C)c1C1=C(O)C2(CCC(F)(F)CC2)NC1=O` [Example 1-5, 3-(4′-Chloro-2,4-dimethylbiphenyl-3-yl)-8,8-difluoro-4-hydroxy-1-azaspiro[4.5]dec-3-en-2-one]: in the data set on Meloidogyne incognita, the “nematicidal effect in % (formation of galls)” value came to 100%. In the data set with Tetranychus urticae (100 g/ha), the “effect in % (spider mites killed)” value was found to be 90%. The “effect in % (aphids killed)” value with Myzus persicae was 100%.

Turning to `Cc1ccc(-c2ccc(F)cc2)c(C)c1C1=C(O)C2(CCC(F)(F)CC2)NC1=O` [Example I-1-a-2], the “nematicidal effect in % (formation of galls)” value in the data set with Meloidogyne incognita was found to be 100%. The “effect in % (spider mites killed)” value in the data set with Tetranychus urticae (500 g/ha) was determined as 100%. Besides, the “effect in % (fertile eggs)” value with Boophilus microplus is given as 80%. Also, the “effect in % (beetle larvae killed)” value in the data set with Phaedon cochleariae came to 100%. Moreover, the “effect in % (aphids killed)” value in the data set with Myzus persicae was 100%. In addition, the kill in % in the data set on Lucilia cuprina was 100%. Besides, the “effect in % (caterpillars killed)” value in the data set with Spodoptera frugiperda stood at 100%.

For the compound `Cc1cc(Br)cc(C)c1C1=C(O)C2(CCC(F)(F)CC2)NC1=O` [Example I-1-a-5], in the data set on Tetranychus urticae (100 g/ha), the “effect in % (spider mites killed)” value was found to be 100%. Further, the “effect in % (beetle larvae killed)” value in the data set on Phaedon cochleariae is recorded as 100%. Further, in the data set on Myzus persicae, the “effect in % (aphids killed)” value was 100%.

For the compound `Cc1cc(Cl)cc(C)c1C1=C(O)C2(CCC(F)(F)CC2)NC1=O` [Example I-1-a-7], the “effect in % (spider mites killed)” value with Tetranychus urticae (100 g/ha) is 100%. Further, the “effect in % (beetle larvae killed)” value in the data set on Phaedon cochleariae is 100%. For the same compound, the “effect in % (aphids killed)” value in the data set with Myzus persicae turned out to be 100%.

With `CCc1cc(C)cc(C)c1C1=C(O)C2(CCC(F)(F)CC2)NC1=O` [Example I-1-a-11], the “effect in % (spider mites killed)” value in the data set on Tetranychus urticae (100 g/ha) stood at 100%.

Turning to `Cc1ccc(-c2ccc(F)cc2)c(C)c1C1=C(O)C2(CC=C(F)CC2)NC1=O` (centres unmarked) [Example I-1-a-12], in the data set with Tetranychus urticae (500 g/ha), the “effect in % (spider mites killed)” value is on record as 100%. Moreover, in the data set with Phaedon cochleariae, the “effect in % (beetle larvae killed)” value came to 100%. Also, the “effect in % (aphids killed)” value with Myzus persicae worked out at 100%. Moreover, in the data set with Spodoptera frugiperda, the “effect in % (caterpillars killed)” value is reported as 100%.

Take `Cc1cc(Cl)cc(C)c1C1=C(O)C2(CC=C(F)CC2)NC1=O` (centres unmarked) [Example I-1-a-13]: in the data set with Tetranychus urticae (100 g/ha), the “effect in % (spider mites killed)” value is 90%. Moreover, the “effect in % (beetle larvae killed)” value with Phaedon cochleariae was found to be 100%. Also, the “effect in % (aphids killed)” value in the data set on Myzus persicae came out at 100%.

Turning to `Cc1ccc(-c2ccc(F)cc2)c(C)c1C1=C(O)C2(CCC(F)(F)CC2)OC1=O` [Example I-2-a-2], the “effect in % (spider mites killed)” value in the data set on Tetranychus urticae (500 g/ha) was 100%. Moreover, the “effect in % (beetle larvae killed)” value in the data set with Phaedon cochleariae is reported as 100%. For the same compound, the “effect in % (aphids killed)” value in the data set with Myzus persicae is listed as 100%. Besides, the “effect in % (caterpillars killed)” value in the data set on Spodoptera frugiperda amounted to 100%.

Turning to `Cc1ccc(-c2ccc(Cl)cc2)cc1C1=C(O)C2(CCC(F)(F)CC2)OC1=O` [Example I-2-a-3], the “effect in % (beetle larvae killed)” value with Phaedon cochleariae was 100%. Moreover, in the data set on Myzus persicae, the “effect in % (aphids killed)” value was determined as 90%. Also, the “effect in % (caterpillars killed)” value with Spodoptera frugiperda came to 100%.

For `Cc1cc(C)c(C2=C(O)C3(CCC(F)(F)CC3)OC2=O)c(C)c1` [Example I-2-a-4], in the data set on Phaedon cochleariae, the “effect in % (beetle larvae killed)” value is 100%. In addition, the “effect in % (aphids killed)” value in the data set with Myzus persicae was 100%.

With `Cc1ccc(-c2ccc(Cl)c(F)c2)cc1C1=C(O)[C@]2(CC[C@H](C(F)(F)F)CC2)NC1=O` [V.1-a, (5s,8s)-3-(4′-Chloro-3′-fluoro-4-methylbiphenyl-3-yl)-4-hydroxy-8-(trifluoromethyl)-1-azaspiro[4.5]dec-3-en-2-one], the chromatographic logD in data set [1] was 2.55. The “Ratio of IC50s ACC2/ACC1” value with human ACC1 was 8.6.

Consider `Cc1ccc(-c2ccc(Cl)c(F)c2)cc1C1=C(O)C2(CCCCC2)NC1=O` [V.1-b, 3-(4′-Chloro-3′-fluoro-4-methylbiphenyl-3-yl)-4-hydroxy-1-azaspiro[4.5]dec-3-en-2-one], for which, in [1], the chromatographic logD is 2.8.

As to `Cc1ccc(-c2ccc(Cl)cc2)cc1C1=C(O)[C@]2(CC[C@H](C(F)(F)F)CC2)NC1=O` [V.2-a, (5s,8s)-3-(4′-Chloro-4-methylbiphenyl-3-yl)-4-hydroxy-8-(trifluoromethyl)-1-azaspiro[4.5]dec-3-en-2-one], the chromatographic logD in [1] amounted to 2.23. Further, in the data set with human ACC1, the “Ratio of IC50s ACC2/ACC1” value turned out to be 8.4.

In the case of `Cc1ccc(-c2ccc(Cl)cc2)cc1C1=C(O)C2(CCCCC2)NC1=O` [V.2-b, 3-(4′-Chloro-4-methylbiphenyl-3-yl)-4-hydroxy-1-azaspiro[4.5]dec-3-en-2-one, reference compound], in data set [1], the chromatographic logD was 2.77. The “fu [%] (rat)” value with plasma proteins of rat was 0.71%. Further, the “fu [%] (human)” value in the data set with human plasma protein is 0.36%. The “fu [%] (mouse)” value with mouse plasma protein was determined as 2.81%.
